Results published in patent US20160185820A1, “PRO[…], A GENE TRANSFER ENHANCER” (PHARIS BIOTEC GMBH, priority 2013, published 2016).
Non-standard residues stand in square brackets, D forms with d. Residues, ends and D or L forms follow the SMILES beside them. No end group written: not given here. pGlu = O=C1CC[C@@H](C(=O)O)N1

Tests used:
[1] = Storage stability in aqueous solution (HPLC chromatogram, FIG. 1); format: physicochemical; details: storage at 4° C. for 13 days
Description: In the left column of FIG. 1 (HPLC chromatogram), results for protransduzin A upon storage for 0-13 days at −20° C. and at 4° C. (13 days) are compared with the results for protransduzin B under the same conditions.

[2] = system: cells; experiment: Transduction of cells with protransduzin B; format: cell-based; details: 25 μg/ml protransduzin B, cells incubated 2 days
Description: Dissolve 0.5 mg of protransduzin B in 50 μl of DMSO. Then add 450 μl of PBS to the solution, fibrils forming within 3 min. Add this stock solution (1 mg/ml) to the vectors to obtain a concentration of protransduzin B of 25 μg/ml. Vortex the solution for 1 min, then centrifuge with 5000 g for 5 min. The supernatant is discarded, and the pellet is suspended in a little PBS and added to the cells. The cells are incubated in an incubator for 2 days.

Row | Molecule | degradation upon storage (HPLC peak height) [1] | cells transduced [2] | transduction rate [2]
1 | QCKIKQIINMWQ [protransduzin A, reference compound] | degraded almost to one half |  | 
2 | CC[C@H](C)[C@H](NC(=O)[C@H](CCCCN)NC(=O)[C@H](CS)NC(=O)[C@@H]1CCC(=O)N1)C(=O)N[C@@H](CCCCN)C(=O)N[C@@H](CCC(N)=O)C(=O)N[C@H](C(=O)N[C@H](C(=O)N[C@@H](CC(N)=O)C(=O)N[C@@H](CCSC)C(=O)N[C@@H](Cc1c[nH]c2ccccc12)C(=O)N[C@@H](CCC(N)=O)C(=O)O)[C@@H](C)CC)[C@@H](C)CC [protransduzin B] ([pGlu]CKIKQIINMWQ-OH) | hardly degraded at all | Up to 96% | significantly enhanced
